In US9562035B2, “Benzamide derivative useful as FASN inhibitors for the treatment of cancer” (Janssen Pharmaceutica NV, priority 2013, dated 2017):

How the values were obtained:
[1] = target: T1, hFASN enzyme (full length) (Homo sapiens, UniProt P49327); experiment: Fatty Acid Synthase (FASN) Inhibition Scintillation Proximity Assay; assay type: biochemical; details: for IC50: mean where tested more than once, ~ = standard error of pIC50 larger than 0.5; for inhibition at 10 µM: read-out: FASN % Effect @1E−05M
T1 construct: 10 μL hFASN enzyme (full length, 300 ng, purified in house); made in house
Procedure: In this assay, inhibition of FASN activity is measured using ^3H-acetyl-CoA and malonyl-CoA as substrates. ^3H-Acetyl CoA is converted to ^3H-palmitate through a series of reactions by the FASN protein, which contains 7 functional domains and carries out 7 enzymatic reactions to ultimately produce ^3H-palmitate. The assay principle is based upon the fact that ^3H-acetyl-CoA is hydrophilic and the end product, ^3H-palmitate is hydrophobic.
10 μL assay buffer (100 mM KH2PO4 pH 7.5, 1 mM DTT) (20 μL in blanks) was added to a 384-well white Opti Plate plate (Perkin Elmer). 0.9 μL test compound (at concentrations of 30 μM, 10 μM, 3 μM, 1 μM, 0.30 μM, 0.10 μM, 0.03 μM and 0.01 μM)/DMSO and 10 μL hFASN enzyme (full length, 300 ng, purified in house) or 10 μL assay buffer was added to the wells. Then 10 μL 450 μM NADPH (Sigma N7505), 18.75 μM [^3H]-acetyl-CoA (Perkin Elmer NET-290L), 150 μM malonyl-CoA (Sigma M4263) were added, mixed and incubated at room temperature for 60 minutes. The reaction was stopped by adding 20 μL Streptavidin coupled imaging beads (25 mg/ml). After incubation for 30 minutes at room temperature in the dark, the 384 well plate was centrifuged at 1500 rpm for 3 minutes and was measured after at least 24 hrs by the LEADseeker™, measuring emission using a 610±20 nm pass filter. (Bays, N. W., et al., “A simplified scintillation proximity assay for fatty acid synthase activity: development and comparison with other FAS activity assays”, J. Biomol. Screen, 2009, pp 636-642, Vol. 14(6).)
(§1) Raw data generated by the instrument were normalized to % Controlmin values, which were calculated as: % Controlmin=100*(x−mLC)/(mHC−mLC)
(§2) where mLC and mHC were the means of the low control wells and high control wells on the plate, after manual exclusion of outliers. A plot of Controlmin versus test compound concentration was fitted to a 4-parameter logistic curve using a non-linear least squares regression method. From the plot, an IC50 (concentration at which 50% inhibition is achieved) was calculated. pIC50 values were calculated as −log(IC50), when IC50 is expressed in molar units.

[2] = target: T2, FASN Keto-reductase Domain (Homo sapiens, UniProt P49327); experiment: Fatty Acid Synthase Keto-Reductase Domain (FASN KR) Inhibition; assay type: biochemical; details: mean where tested more than once; read-out: FASN K-R Domain pIC50 (converted)
T2 construct: 10 μL hFASN enzyme (full length, 300 ng, purified in house) and 360 μM NADPH; made in house
Procedure: 10 μL assay buffer (100 mM KH2PO4 pH 7.5) was added to a 384-well clear plate (costar 3702). 0.3 μL compound (at concentrations of 30 μM, 10 μM, 3 μM, 1 μM, 0.30 μM, 0.10 μM, 0.03 μM and 0.01 μM)/DMSO, 10 μL hFASN enzyme (full length, 300 ng, purified in house) and 360 μM NADPH (except in blank) were then added. Then, 10 μL 180 mM ethyl acetoacetate (Aldrich 688983) was added, mixed and immediately thereafter, the absorbance at 340 nm (T1) by Multiscan (Labsystems) was measured. After 20 minutes incubation at room temperature the plate was measured again (T2).
The decrease in absorbance was calculated as (Absorbance before incubation T1)−(Absorbance following incubation T2).
as §1, §2

T2 sequence (P49327 whole entry, the tested form may be a part): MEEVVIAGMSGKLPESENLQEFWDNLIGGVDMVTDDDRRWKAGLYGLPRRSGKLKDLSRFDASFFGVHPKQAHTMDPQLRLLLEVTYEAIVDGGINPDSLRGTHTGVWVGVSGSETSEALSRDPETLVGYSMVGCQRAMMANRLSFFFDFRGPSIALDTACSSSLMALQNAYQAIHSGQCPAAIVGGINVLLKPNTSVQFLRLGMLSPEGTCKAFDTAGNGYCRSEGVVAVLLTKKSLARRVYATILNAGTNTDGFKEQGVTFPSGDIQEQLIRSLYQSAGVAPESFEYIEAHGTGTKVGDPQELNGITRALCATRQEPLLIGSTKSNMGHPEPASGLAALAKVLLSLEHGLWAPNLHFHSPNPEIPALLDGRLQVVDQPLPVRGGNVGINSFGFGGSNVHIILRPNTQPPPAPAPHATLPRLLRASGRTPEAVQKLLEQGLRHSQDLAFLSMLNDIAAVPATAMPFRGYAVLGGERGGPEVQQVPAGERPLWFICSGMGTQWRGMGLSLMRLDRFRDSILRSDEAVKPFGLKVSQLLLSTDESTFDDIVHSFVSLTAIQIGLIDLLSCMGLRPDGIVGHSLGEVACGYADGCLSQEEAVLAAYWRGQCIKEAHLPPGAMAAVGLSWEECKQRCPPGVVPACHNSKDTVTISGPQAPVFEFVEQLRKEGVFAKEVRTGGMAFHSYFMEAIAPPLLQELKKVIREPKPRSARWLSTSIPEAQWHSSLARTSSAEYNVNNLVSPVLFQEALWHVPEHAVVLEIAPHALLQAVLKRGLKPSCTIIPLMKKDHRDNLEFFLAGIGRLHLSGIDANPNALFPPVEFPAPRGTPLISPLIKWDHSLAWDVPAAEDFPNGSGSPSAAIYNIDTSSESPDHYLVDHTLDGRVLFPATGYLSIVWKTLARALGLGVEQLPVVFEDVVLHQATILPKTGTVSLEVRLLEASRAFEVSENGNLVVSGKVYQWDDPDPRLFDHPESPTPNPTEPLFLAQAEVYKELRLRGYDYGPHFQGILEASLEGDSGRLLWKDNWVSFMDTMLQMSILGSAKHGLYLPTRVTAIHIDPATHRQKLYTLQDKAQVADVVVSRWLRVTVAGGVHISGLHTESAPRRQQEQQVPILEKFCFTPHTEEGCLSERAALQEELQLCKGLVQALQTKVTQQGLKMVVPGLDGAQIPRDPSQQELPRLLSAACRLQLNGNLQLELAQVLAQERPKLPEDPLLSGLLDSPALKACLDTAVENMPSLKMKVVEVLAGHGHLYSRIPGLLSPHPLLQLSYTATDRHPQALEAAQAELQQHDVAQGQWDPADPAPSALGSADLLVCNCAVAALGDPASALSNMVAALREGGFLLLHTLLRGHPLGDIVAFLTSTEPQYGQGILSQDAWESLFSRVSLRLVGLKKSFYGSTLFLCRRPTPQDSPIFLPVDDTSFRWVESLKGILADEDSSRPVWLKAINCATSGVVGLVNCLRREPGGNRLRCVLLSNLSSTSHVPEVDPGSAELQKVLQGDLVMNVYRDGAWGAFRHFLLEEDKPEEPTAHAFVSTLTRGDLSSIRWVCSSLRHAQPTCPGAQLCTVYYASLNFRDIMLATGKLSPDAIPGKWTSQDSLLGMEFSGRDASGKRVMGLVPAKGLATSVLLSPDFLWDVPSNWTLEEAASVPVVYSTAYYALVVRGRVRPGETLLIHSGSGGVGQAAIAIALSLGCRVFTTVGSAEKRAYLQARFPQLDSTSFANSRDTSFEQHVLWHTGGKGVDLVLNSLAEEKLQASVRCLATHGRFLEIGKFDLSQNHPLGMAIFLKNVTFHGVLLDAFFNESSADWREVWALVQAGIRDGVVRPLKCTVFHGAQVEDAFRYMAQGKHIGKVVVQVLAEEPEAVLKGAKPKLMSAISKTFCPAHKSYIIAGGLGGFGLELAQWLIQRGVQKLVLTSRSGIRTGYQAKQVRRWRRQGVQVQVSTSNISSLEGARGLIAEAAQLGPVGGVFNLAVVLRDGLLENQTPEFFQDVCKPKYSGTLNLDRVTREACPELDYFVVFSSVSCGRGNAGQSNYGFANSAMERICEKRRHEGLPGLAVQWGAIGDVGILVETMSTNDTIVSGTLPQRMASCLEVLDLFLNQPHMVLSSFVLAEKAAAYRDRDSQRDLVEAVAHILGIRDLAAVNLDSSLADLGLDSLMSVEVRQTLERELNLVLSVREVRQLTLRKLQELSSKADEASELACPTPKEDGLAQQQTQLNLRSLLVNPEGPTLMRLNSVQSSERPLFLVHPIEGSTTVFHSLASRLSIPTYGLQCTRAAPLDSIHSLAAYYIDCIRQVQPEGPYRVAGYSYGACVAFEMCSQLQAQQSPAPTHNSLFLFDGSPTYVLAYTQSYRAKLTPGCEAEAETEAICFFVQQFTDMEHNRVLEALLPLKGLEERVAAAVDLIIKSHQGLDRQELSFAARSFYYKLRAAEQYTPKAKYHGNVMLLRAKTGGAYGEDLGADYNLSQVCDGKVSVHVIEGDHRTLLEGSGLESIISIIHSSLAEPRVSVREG
T1 sequence (P49327 whole entry): as the sequence (P49327 whole entry, the tested form may be a part) above

| IC50 [1] [µM] | inhibition at 10 µM [1] [%] | IC50 [2] [µM] | SMILES |
| --- | --- | --- | --- |
| > 30.2 | 30 | 17 | Cc1ccc(C(=O)N2CCC(c3ccc4nccn4c3)CC2)cc1NC(=O)c1ccc(Cl)nc1 [Compound 14, 6-chloro-N-(5-(4-(imidazo[1,2-a]pyridin-6-yl)piperidine-1-carbonyl)-2-methylphenyl)nicotinamide] |
| 27.5 | 22 | 13.2 | Cc1ccc(C(=O)N2CCC(c3ccc4c(c3)C(C)N(C)C4=O)CC2)cc1NC(=O)c1ccc(Cl)nc1 (stereo not shown) [Compound 21, 6-chloro-N-(5-(4-(2,3-dimethyl-1-oxoisoindolin-5-yl)piperidine-1-carbonyl)-2-methylphenyl)nicotinamide] |
| > 30.2 | 2 | > 30.2 | Cc1ccc(C(=O)N2CCC(c3ccc4nncn4c3)CC2)cc1NC(=O)c1ccc(Cl)nc1 [Compound 18, N-(5-(4-([1,2,4]triazolo[4,3-a]pyridin-6-yl)piperidine-1-carbonyl)-2-methylphenyl)-6-chloronicotinamide] |
| > 10 | 17 | – | Cc1ccc(C(=O)N2CC(c3ccc(-c4cnn(C)c4)cc3)C2)cc1NC(=O)C1CCCC1 [Compound 226, N-(2-methyl-5-(3-(4-(1-methyl-1H-pyrazol-4-yl)phenyl)azetidine-1-carbonyl)phenyl)cyclopentanecarboxamide] |
| > 10 | 41 | – | Cc1ccc(C(=O)N2CC(O)(c3ccc(-c4ccnn4C)cc3)C2)cc1NC(=O)c1ccc(Cl)nc1 [Compound 107, 6-chloro-N-(5-(3-hydroxy-3-(4-(1-methyl-1H-pyrazol-5-yl)phenyl)azetidine-1-carbonyl)-2-methylphenyl)nicotinamide] |
| 2.45 | 63 | – | Cc1ccc(C(=O)N2CCC(c3ccc(-c4cnn(C)c4)cc3)CC2)cc1NC(=O)c1nccn1C [Compound 227, 1-methyl-N-(2-methyl-5-(4-(4-(1-methyl-1H-pyrazol-4-yl)phenyl)piperidine-1-carbonyl)phenyl)-1H-imidazole-2-carboxamide] |
| 6.61 | 50 | 5.5 | Cc1ccc(C(=O)N2CCC(c3ccc4c(c3)CN(C)C4=O)CC2)cc1NC(=O)c1ccc(NC(C)C)nc1 [Compound 19, 6-(isopropylamino)-N-(2-methyl-5-(4-(2-methyl-1-oxoisoindolin-5-yl)piperidine-1-carbonyl)phenyl)nicotinamide] |

The remaining lines, values behind:

| SMILES | IC50 [1] [µM] | inhibition at 10 µM [1] [%] | IC50 [2] [µM] |
| --- | --- | --- | --- |
| Cc1ccc(C(=O)N2CCC(c3ccc(-c4cnn(C)c4)cc3)CC2)cc1NC(=O)c1ccc(N2CCN[C@H](CO)C2)nc1 [Compound 164, (3S)-6-(3-(hydroxymethyl)piperazin-1-yl)-N-(2-methyl-5-(4-(4-(1-methyl-1H-pyrazol-4-yl)phenyl)piperidine-1-carbonyl)phenyl)nicotinamide] | 0.0209 | 110 | 0.0417 |
| Cc1ccc(C(=O)N2CCC(c3ccc4nncn4c3)CC2)cc1NC(=O)c1ccc(NC(C)C)nc1 [Compound 20, N-(5-(4-([1,2,4]triazolo[4,3-a]pyridin-6-yl)piperidine-1-carbonyl)-2-methylphenyl)-6-(isopropylamino)nicotinamide] | ~30.2 | 30 | – |
| Cc1ccc(C(=O)N2CCC(c3ccc4nccn4c3)CC2)cc1NC(=O)c1ccc(NC(C)C)nc1 [Compound 17, N-(5-(4-(imidazo[1,2-a]pyridin-6-yl)piperidine-1-carbonyl)-2-methylphenyl)-6-(isopropylamino)nicotinamide] | ~12.9 | 51 | 8.13 |
| CN(C(=O)C1CC1)c1ccc(C(=O)N2CCC(c3ccc(-c4cnn(C)c4)cc3)CC2)cc1NC(=O)C1CC1 [Compound 277, N-(2-(cyclopropanecarboxamido)-4-(4-(4-(1-methyl-1H-pyrazol-4-yl)phenyl)piperidine-1-carbonyl)phenyl)-N-methylcyclopropanecarboxamide] | 4.47 | 62 | – |
| Cc1ccc(C(=O)N2CCC(c3ccc(-c4cnn(C)c4)cc3)CC2)cc1NC(=O)c1nc(C(C)(C)C)cs1 [Compound 229, 4-(tert-butyl)-N-(2-methyl-5-(4-(4-(1-methyl-1H-pyrazol-4-yl)phenyl)piperidine-1-carbonyl)phenyl)thiazole-2-carboxamide] | 4.07 | 61 | – |
| Cc1ccc(C(=O)N2CCC(c3ccc4ncsc4c3)CC2)cc1NC(=O)c1ccc(NC(C)C)nc1 [Compound 46, N-(5-(4-(benzo[d]thiazol-6-yl)piperidine-1-carbonyl)-2-methylphenyl)-6-(isopropylamino)nicotinamide] | 2.29 | 74 | – |
| Cc1ccc(C(=O)N2CCC(c3ccc4c(c3)C(C)N(C)C4=O)CC2)cc1NC(=O)c1ccc(NC(C)C)nc1 (stereo not shown) [Compound 22, N-(5-(4-(2,3-dimethyl-1-oxoisoindolin-5-yl)piperidine-1-carbonyl)-2-methylphenyl)-6-(isopropylamino)nicotinamide] | 4.9 | 60 | 7.94 |
| Cc1ccc(C(=O)N2CCC(c3ccc4ncsc4c3)CC2)cc1NC(=O)c1ccc(Cl)nc1 [Compound 47, N-(5-(4-(benzo[d]thiazol-6-yl)piperidine-1-carbonyl)-2-methylphenyl)-6-chloronicotinamide] | ~7.76 | 60 | – |
| Cc1ccc(-c2ccc(C3CCN(C(=O)c4ccc(C)c(NC(=O)c5ccc(NC(C)C)nc5)c4)CC3)cc2)cc1 [Compound 234, 6-(isopropylamino)-N-(2-methyl-5-(4-(4′-methyl-[1,1′-biphenyl]-4-yl)piperidine-1-carbonyl)phenyl)nicotinamide] | ~2 | 63 | – |
| COCCN(C(=O)C1CC1)c1ccc(C(=O)N2CCC(c3ccc(-c4cnn(C)c4)cc3)CC2)cc1NC(=O)C1CC1 [Compound 291, N-(2-(cyclopropanecarboxamido)-4-(4-(4-(1-methyl-1H-pyrazol-4-yl)phenyl)piperidine-1-carbonyl)phenyl)-N-(2-methoxyethyl)cyclopropanecarboxamide] | > 10 | – | – |
